System: weeds
Experiment: Weed control: small scale field experiment (1 m×1 m plots)
Type: in vivo
Details: for herbicidal effect category, 12 days: 12 days after the treatment; for herbicidal effect category, 12 days / herbicidal effect category, 30 days: 1 m×1 m plots, sprayed at 100 liter per hectare, concentration C (% by weight) per composition; for herbicidal effect (in words): small scale field plots, summary of Table 1; for herbicidal effect category, 30 days: 30 days after the treatment
Experimental: The active components(s), the concentration of the dissolved/suspended active components in the aqueous composition (C, expressed as % by weight of the composition) and the mixing ratios in case of multiple components are tabulated in Table 1.
Compositions 1-A to 1-L, 2-O, 2-P and 3-Q to 3-V were prepared by dissolving water-soluble powders or pellets in water, or adding to water sparingly soluble powders, or combination of both, at the concentrations set out in Table 1, to form sprayable solutions/suspensions.
The herbicidal compositions were sprayed at rate of application of 100 liter per hectare.
The herbicidal effect was determined 5, 12 and 30 days after the treatment. To this end, five categories were defined: • A category: complete control of the weeds was achieved. • B category: severe damage was caused to the weeds. • C category: some damage was caused to the weeds. • D category: minor damage was caused to the weeds. • E category: no damage was caused to the weeds.

| SMILES | herbicidal effect category, 12 days | herbicidal effect (in words) | herbicidal effect category, 30 days |
| --- | --- | --- | --- |
| O=C([O-])O.O=C([O-])O.[Ca+2] [Composition 1-I, Ca(HCO3)2] | D+ | poor activity |  |
| [Na+].[OH-] [Composition 1-A, NaOH] |  |  | B+ |
| O=C([O-])O.[Na+] [Composition 1-C, NaHCO3] | D+ |  |  |
| [Ca+2].[OH-].[OH-] [Composition 1-G, Ca(OH)2] |  | poor activity | D+ |
| O=C([O-])O.[K+] [Composition 1-F, KHCO3] |  |  | C+ |
| [K+].[OH-] [Composition 1-D, KOH] |  |  | B+ |

Source: patent publication US12667104B2, “Herbicidal compositions” (Yissum Research Development Company of the Hebrew …, priority 2019, dated 2026)
